Article PMC3199943, “Screening the MayBridge Rule of 3 Fragment Library for Compounds That Interact with the Trypanosoma brucei myo-Inositol-3-Phosphate Synthase and/or Show Trypanocidal Activity” (Molecular Biology International, 2011)
Read-outs that look alike come from different tables or passages of the source.

Key:
TbINO1 = target: T1, TbINO1 (Trypanosoma brucei brucei, UniProt Q5QQ46); assay: biochemical; format: binding
T1 sequence (Q5QQ46 1-528): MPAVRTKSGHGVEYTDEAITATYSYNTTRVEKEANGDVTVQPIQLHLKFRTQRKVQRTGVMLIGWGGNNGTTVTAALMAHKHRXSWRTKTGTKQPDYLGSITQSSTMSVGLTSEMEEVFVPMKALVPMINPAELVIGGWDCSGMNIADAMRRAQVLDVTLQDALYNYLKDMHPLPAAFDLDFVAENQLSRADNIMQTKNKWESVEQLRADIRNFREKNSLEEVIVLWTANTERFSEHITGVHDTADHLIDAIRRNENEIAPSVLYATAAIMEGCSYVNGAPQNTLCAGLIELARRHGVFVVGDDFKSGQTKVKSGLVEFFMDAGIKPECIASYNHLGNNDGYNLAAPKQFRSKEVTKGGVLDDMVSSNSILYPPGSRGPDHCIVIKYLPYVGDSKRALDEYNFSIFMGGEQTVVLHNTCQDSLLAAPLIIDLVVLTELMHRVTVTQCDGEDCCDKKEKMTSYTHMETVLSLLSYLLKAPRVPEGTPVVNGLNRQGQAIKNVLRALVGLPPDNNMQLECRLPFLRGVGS

HeLa cells = assay: cells; conditions: for viability at 500 µM / CC50: Homo sapiens, HeLa; for viability at 500 µM: 65 h; for HeLa Cells Alamar Blue: Supplementary Table 1, compound 0.5 mM, percentage of controls, mean ± SD (n=3) or SE (n=2); for CC50: read-out: HeLa ED50
Procedure, shortened: (§1)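 Seed HeLa/A549 at 2 × 10^4 cells/well in DMEM/10% FCS/2 mM L-Gln; treat ~65 h; add Alamar Blue, 5 h more.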

A549 cells = assay: Cytotoxicity against A549 cells, Alamar Blue; format: cell-based; conditions: Supplementary Table 1, compound 0.5 mM, percentage of controls (n=1); for viability at 500 µM: Homo sapiens, A549, 65 h
Procedure, shortened: as §1

[1] = read-out: Tb Ino1 Tm Shift [˚C]
[2] = read-out: HeLa Cells Alamar Blue
[3] = Supplementary Table 1, compound 1mM, mean ± SD from Boltzman curve fitting
[4] = read-out: HeLa Cells Alamar Blue (% survival)
[5] = Supplementary Table 1, compound 1mM, mean ± SD from Boltzman curve fitting, read-out: Tb Ino1 Tm Shift [˚C]

Row | Compound | ΔTm at 1000 µM (TbINO1; [1]) | viability at 500 µM (HeLa cells; [2]) | viability at 500 µM (A549 cells) | other results
1 | OCc1cccc(N2CCCC2)c1 [compound 428, (3‐pyrrolidin‐1‐ylphenyl)methanol] | 0.44 ± 0.07 °C | 12.6 ± 5.6% | 81.2% | 
2 | N#Cc1c(N)cccc1Cl [compound 210, 2‐amino‐6‐chlorobenzonitrile] | 0.15 ± 0.08 °C | 91.5 ± 10.8% | 89.2% | 
3 | NC(=S)Nc1ccncc1 [compound 215, N‐(4‐pyridyl)thiourea] | 0.03 ± 0.08 °C | 98.3 ± 16.5% | 59.6% | 
4 | Cn1nc2ccccc2c1CO [compound 285, (2‐methyl‐2H‐indazol‐3‐yl)methanol] | 0.29 ± 0.07 °C | 73.4 ± 10.6% | 67.6% | 
5 | Nc1cccc(Oc2ccccn2)c1 [compound 506, 3‐(pyridin‐2‐yloxy)aniline] | 0.23 ± 0.09 °C | 99.2 ± 16.2% | 72.5% | 
6 | CC(=O)c1cc(C)ccc1O [compound 184, 1‐(2‐hydroxy‐5‐methylphenyl)ethan‐1‐one] |  |  |  | Tb Ino1 Tm Shift [˚C] (TbINO1; [3]): 0.14 ± 0 °C; HeLa Cells Alamar Blue (HeLa cells): 91.7 ± 11.6 percentage of controls; A549 Cells Alamar Blue (A549 cells): 53.1 percentage of controls
7 | N#Cc1cccc(-n2ccnc2)c1 [compound 339, 3‐(1H‐imidazol‐1‐yl)benzonitrile] | 0.39 ± 0.06 °C | 89.8 ± 5.8% | 135% | 
8 | ON=C1CCCCCN1 [compound 87, azepan‐2‐one oxime] | 0.52 ± 0.06 °C | 92.3 ± 17.4% | 115% | 
9 | Nc1ccc2occc2c1 [compound 100, 1‐benzofuran‐5‐amine] | 0.78 ± 0.05 °C | 80.2 ± 12.5% | 110% | 
10 | O=C(O)C1CCCO1 (stereo not drawn) [compound 42, tetrahydro‐2‐furancarboxylic acid] | 0.3 ± 0.08 °C | 81.9 ± 17% | 75.1% | 
11 | O=C1Cc2ccccc2N1 [compound 99, indolin-2-one] |  | 66.6 ± 18.7% | 229% | ΔTm at 1000 µM (TbINO1; read-out: TbIno1 Tm shift [°C]): 2.04 ± 0.07 °C; viability at 500 µM (HeLa cells; [4]): 66.6 ± 18.7%; CC50 (HeLa cells): > 2000 µM
12 | NC1=CC=C2OCOCC2C1 (stereo not drawn) [compound 195, 4,5‐dihydro‐1,3‐benzodioxine‐6‐amine] | 1.16 ± 0.06 °C | 77.4 ± 10.5% | 54.1% | 
13 | c1cnc2c(n1)CCCC2 [compound 111, 5,6,7,8‐tetrahydroquinoxaline] | 0.16 ± 0.06 °C | 95.6 ± 0.8% | 96.1% | 
14 | N#Cc1ccc(OC2CCOCC2)cc1 [compound 645, 4‐(tetrahydropyran‐4‐yloxy)benzonitrile] | 0.18 ± 0.05 °C | 77.4 ± 15.8% | 102% | 
15 | Cc1ccc[nH]c1=O [compound 17, 3‐methyl‐1,2‐dihydropyridin‐2‐one] | 0.81 ± 0.08 °C | 106 ± 11.4% | 87.2% | 
16 | c1cc(-c2ccncc2)ccn1 [compound 235, 4,4'‐dipyridyl] |  | 63.7 ± 17.4% | 54.8% | ΔTm at 1000 µM (TbINO1; [5]): 0.2 ± 0.07 °C
17 | Nc1ccccc1OC(F)(F)F [compound 418, 2‐(trifluoromethoxy)aniline] | 0.14 ± 0.07 °C | 99.1 ± 14.1% | 97.9% | 
18 | Cc1oc(-c2ccccc2)cc1CO [compound 521, (2‐methyl‐5‐phenyl‐3‐furyl)methanol] | 1.27 ± 0.07 °C | 41.5 ± 15% | 57.1% | 
19 | Cc1ccc(CO)o1 [compound 30, (5-methyl-2-furyl)methanol] |  | 23.3 ± 18.6% | 23.7% | ΔTm at 1000 µM (TbINO1; read-out: TbIno1 Tm shift [°C]): 3.79 ± 0.08 °C; viability at 500 µM (HeLa cells; [4]): 23.3 ± 18.6%
20 | O=C(O)c1ccc(-c2ccccc2)nc1 [compound 610, 6‐phenylnicotinic acid] | 0.46 ± 0.06 °C | 82.3 ± 8.2% | 125% | 
21 | CC(=O)N1CCC(C#N)CC1 [compound 207, 1‐acetylpiperidine‐4‐carbonitrile] | 0.03 ± 0.07 °C | 90 ± 2.9% | 65.3% | 
22 | Cc1nn(C)c(C)c1N [compound 72, 1,3,5‐trimethyl‐1H‐pyrazol‐4‐amine] | 1.19 ± 0.08 °C | 78.5 ± 0.8% | 70.9% | 

Row | Compound | ΔTm at 1000 µM (TbINO1; [1]) | viability at 500 µM (HeLa cells; [2]) | viability at 500 µM (A549 cells) | other results
23 | CNCc1c(-c2ccccc2)noc1C [compound 637, N‐methyl‐N‐[(5‐methyl‐3‐phenylisoxazol‐4‐yl)methyl]amine] |  |  |  | Tb Ino1 Tm Shift [˚C] (TbINO1; [3]): 0.02 ± 0.07 °C; HeLa Cells Alamar Blue (HeLa cells): 79.8 ± 7.5 percentage of controls; A549 Cells Alamar Blue (A549 cells): 112.6 percentage of controls
24 | Cc1cc(C(=O)O)c(C(F)(F)F)o1 [compound 583, 5‐methyl‐2‐(trifluoromethyl)‐3‐furoic acid] | 0.06 ± 0.07 °C | 86.1 ± 15.8% | 59.6% | 
25 | OCc1cc2ccccc2s1 [compound 301, 1‐benzothiophen‐2‐ylmethanol] | 0.01 ± 0.05 °C | 90.7 ± 4.5% | 71% | 
26 | Cc1cc2c(N)cccc2nn1 [compound 261, 3-methylcinnolin-5-amine] |  | 62.5 ± 14.7% | 74.1% | ΔTm at 1000 µM (TbINO1; read-out: TbIno1 Tm shift [°C]): 1.83 ± 0.11 °C; viability at 500 µM (HeLa cells; [4]): 62.5 ± 14.7%; CC50 (HeLa cells): 726 ± 64 µM
27 | CC(=O)c1ccc2c(c1)OCCO2 [compound 430, 1‐(2,3‐dihydro‐1,4‐benzodioxin‐6‐yl)ethan‐1‐one] |  |  |  | Tb Ino1 Tm Shift [˚C] (TbINO1; [3]): 0.13 ± 0.08 °C; HeLa Cells Alamar Blue (HeLa cells): 91.1 ± 12.8 percentage of controls; A549 Cells Alamar Blue (A549 cells): 101.8 percentage of controls
28 | N#CCc1nc2ccccc2s1 [compound 387, 2‐(1,3‐benzothiazol‐2‐yl)acetonitrile] | 1.29 ± 0.14 °C | 86.4 ± 10.4% | 81% | 
29 | OCc1ccccc1-n1cccc1 [compound 371, [2‐(1H‐pyrrol‐1‐yl)phenyl]methanol] | 0.36 ± 0.07 °C | 88.5 ± 6.4% | 87.3% | 
30 | Cc1ccc2c(c1)OCO2 [compound 116, 5‐methyl‐1,3‐benzodioxole] |  | 82.7 ± 15.6% | 109% | ΔTm at 1000 µM (TbINO1; [5]): 0.38 ± 0.06 °C
31 | O=C(O)c1ccc(-c2nccs2)cc1 [compound 662, 4‐(1,3‐thiazol‐2‐yl)benzoic acid] | 0.36 ± 0.06 °C | 102 ± 7.2% | 100% | 
32 | Cc1nc(C(N)=S)c[nH]1 [compound 135, 2-methyl-1H-imidazole-4-carbothioamide] |  | 90.3 ± 10.9% | 102% | ΔTm at 1000 µM (TbINO1; read-out: TbIno1 Tm shift [°C]): 1.74 ± 0.09 °C; viability at 500 µM (HeLa cells; [4]): 90.3 ± 10.9%
33 | Nc1ccc2c(c1)OCCO2 [compound 193, 2,3‐dihydro‐1,4‐benzodioxin‐6‐amine] | 0.4 ± 0.09 °C | 79.9 ± 13.6% | 44.7% | 
34 | CC1(C)C=Cc2cc(C#N)ccc2O1 [compound 487, 2,2‐dimethyl‐2H‐chromene‐6‐carbonitrile] | 0 °C | 112 ± 14.6% | 108% | 
35 | OCc1ccc(-c2ccccn2)s1 [compound 556, [5‐(2‐pyridinyl)‐2‐thienyl]methanol] | 0.19 ± 0.08 °C | 70.2 ± 11% | 93.9% | 
36 | (Piperidino‐3‐pyridinyl)methanol [compound 569] |  |  |  | Tb Ino1 Tm Shift [˚C] (TbINO1; [3]): 0.35 ± 0.07 °C; HeLa Cells Alamar Blue (HeLa cells): 89.2 ± 4.8 percentage of controls; A549 Cells Alamar Blue (A549 cells): 106.4 percentage of controls
37 | Cn1ccc2c(C(=O)O)cccc21 [compound 399, 1‐methyl‐1H‐indole‐4‐carboxylic acid] | 0.63 ± 0.07 °C | 99.3 ± 14.2% | 123% | 
38 | N#Cc1ccc(O)cc1F [compound 120, 2‐fluoro‐4‐hydroxybenzonitrile] | 0.41 ± 0.06 °C | 18.6 ± 10.7% | 72.6% | 
39 | O=C(O)CCc1ccco1 [compound 131, 3‐(2‐furyl)propanoic acid] | 1.22 ± 0.09 °C | 69.8 ± 21.4% | 98.1% | 
40 | N#Cc1ccc(F)cc1 [compound 51, 4‐fluorobenzonitrile] |  | 90.9 ± 7.5% | 64.2% | ΔTm at 1000 µM (TbINO1; [5]): 0.1 ± 0.08 °C
41 | Cc1nnc(N)s1 [compound 39, 5‐methyl‐1,3,4‐thiadiazol‐2‐amine] | 0.31 ± 0.08 °C | 105 ± 14.5% | 72.3% | 
42 | c1ccc(-c2cnco2)cc1 [compound 156, 5‐phenyl‐1,3‐oxazole] | 0.95 ± 0.06 °C | 77.5 ± 18.3% | 104% | 
43 | OCc1cccnc1N1CCCC1 [compound 440, [2‐(1‐pyrrolidinyl)‐3‐pyridinyl]methanol] | 0.78 ± 0.08 °C | 74.6 ± 7.5% | 94% | 
